PubChem BioAssay (NCI)
Where “and” joins values, the source holds several entries; their conditions need not be identical. Equal entries are not always repeated.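 Cells were grown in 96-well plates and exposed to each compound for 48 hours at five concentrations; endpoints were interpolated linearly between bracketing concentrations, or set to the highest concentration if not reached. GI50 marks 50% less growth. At the TGI there is no net growth.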

Legend:
Test in all cases: DTP human tumour cell line panel, 48 h
EKVX NSCLC = test system: EKVX NSCLC
HOP-62 NSCLC = test system: HOP-62 NSCLC
HT29 colon = test system: HT29 colon
SK-OV-3 ovarian = test system: SK-OV-3 ovarian
SNB-19 CNS = test system: SNB-19 CNS
SR leukemia = test system: SR leukemia
SW-620 colon = test system: SW-620 colon
UACC-257 melanoma = test system: UACC-257 melanoma
CCRF-CEM leukemia = test system: CCRF-CEM leukemia
K-562 leukemia = test system: K-562 leukemia

For `CC(C)=CCC/C(C)=C/COC(C)(C)C1=CCC(C)CC1` (stereo unspecified) (tested in a mixture with another compound), the TGI (EKVX NSCLC) was > 100 µM, the TGI (HOP-62 NSCLC) was > 100 µM and the TGI (HT29 colon) was > 100 µM. For the same compound, the TGI (SK-OV-3 ovarian) was > 100 µM, the TGI (SNB-19 CNS) was > 100 µM and the TGI (SR leukemia) was 36.1 µM. For the same compound, the TGI (SW-620 colon) was > 100 µM and the TGI (UACC-257 melanoma) was > 100 µM.
For `CC12CCC3C(CCC4CC(OC(=O)Cc5ccc(N(CCCl)CCCl)cc5)CCC43C)C1CCC(=O)N2` (stereo unspecified), the TGI (CCRF-CEM leukemia) was 22.7 µM, the TGI (EKVX NSCLC) was 30.5 µM and the TGI (HT29 colon) was 30.2 µM. The TGI (K-562 leukemia) was 35.3 µM, the TGI (SK-OV-3 ovarian) was 32.5 µM and the TGI (SNB-19 CNS) was 32.5 µM. It also gave a TGI (SR leukemia) of 16.8 µM and a TGI (SW-620 colon) of 27.8 µM.
With `Nc1ccc(-c2nc3ccccc3s2)cc1C(F)(F)F` the TGI (CCRF-CEM leukemia) was 95 µM, the TGI (EKVX NSCLC) was 23.9 µM and the TGI (HOP-62 NSCLC) was 30 µM. For the same compound, the TGI (HT29 colon) was 29.1 µM, the TGI (K-562 leukemia) was 46.6 µM and the TGI (SK-OV-3 ovarian) was 30.4 µM. The TGI (SNB-19 CNS) was 33.2 µM, the TGI (SW-620 colon) was 35.3 µM and the TGI (UACC-257 melanoma) was 29 µM.
`CC(C(=O)N1C(=O)N(C(=O)C(C)C(O)c2ccccc2)C2CCCCC21)C(O)c1ccccc1` (stereo unspecified) was tested, and the TGI (CCRF-CEM leukemia) was > 100 µM, the TGI (EKVX NSCLC) was > 100 µM and the TGI (HOP-62 NSCLC) was > 100 µM. For the same compound, the TGI (SNB-19 CNS) was > 100 µM, the TGI (SR leukemia) was > 100 µM and the TGI (SW-620 colon) was > 100 µM.
In the case of `CC1=C2C(=C[C@H]3[C@]4(C)CCCC(C)(C)[C@H]4CC[C@]34O[C@H]24)OC1=O`, the TGI (EKVX NSCLC) is reported as > 100 µM, the TGI (HOP-62 NSCLC) is reported as > 100 µM and the TGI (HT29 colon) is reported as > 100 µM. The TGI (K-562 leukemia) was > 100 µM, the TGI (SK-OV-3 ovarian) was > 100 µM and the TGI (SNB-19 CNS) was > 100 µM. For the same compound, the TGI (SW-620 colon) was > 100 µM and the TGI (UACC-257 melanoma) was > 100 µM.
For `COc1c(O)c2c3c(c(C)cc(O)c3c1O)C(=O)C(O)(C(C)(C)C(C)=O)C2=O` (stereo unspecified), the TGI (CCRF-CEM leukemia) was > 100 µM, the TGI (HOP-62 NSCLC) was > 100 µM and the TGI (HT29 colon) was > 100 µM. For the same compound, the GI50 (K-562 leukemia) was 34.4 µM and > 100 µM, the TGI (K-562 leukemia) was > 100 µM and the TGI (SK-OV-3 ovarian) was > 100 µM. For the same compound, the TGI (SNB-19 CNS) was > 100 µM, the TGI (SW-620 colon) was > 100 µM and the TGI (UACC-257 melanoma) was > 100 µM.
In the case of `COc1ccc(CC2c3c(cc(OC)c(OC)c3OC)CCN2C)cc1OC` (stereo unspecified), the TGI (CCRF-CEM leukemia) is reported as > 100 µM, the TGI (EKVX NSCLC) is reported as > 100 µM and the TGI (HOP-62 NSCLC) is reported as > 100 µM. For the same compound, the TGI (HT29 colon) was > 100 µM, the TGI (K-562 leukemia) was > 100 µM and the TGI (SNB-19 CNS) was > 100 µM. For the same compound, the TGI (SW-620 colon) was > 100 µM and the TGI (UACC-257 melanoma) was > 100 µM.
In the case of `S=C(/N=c1\sc(Nc2ccc(Cl)cc2)nc2sc3c(c12)CCN(N1CCc2c(sc4nc(Nc5ccc(Cl)cc5)s/c(=N\C(=S)Nc5ccc(Cl)cc5)c24)C1)C3)Nc1ccc(Cl)cc1`, the TGI (EKVX NSCLC) is reported as > 100 µM, the TGI (HOP-62 NSCLC) is reported as > 100 µM and the TGI (HT29 colon) is reported as 36.1 µM. For the same compound, the TGI (SK-OV-3 ovarian) was 66.4 µM, the TGI (SNB-19 CNS) was > 100 µM and the TGI (SW-620 colon) was > 100 µM. The TGI (UACC-257 melanoma) was > 100 µM.
For `CCOC(=O)c1c(-c2ccccc2)c(-c2ccccc2)cn1C`, the TGI (CCRF-CEM leukemia) was > 10 µM, the TGI (EKVX NSCLC) was > 10 µM and the TGI (HT29 colon) was > 10 µM. The TGI (K-562 leukemia) was > 10 µM, the TGI (SK-OV-3 ovarian) was > 10 µM and the TGI (SNB-19 CNS) was > 10 µM. For the same compound, the TGI (SR leukemia) was > 10 µM and the TGI (UACC-257 melanoma) was > 10 µM.
